Usually IC50 stands for the concentration at which inhibition is half-maximal. A low value points to greater potency.

Our source for the Emax and IC50 values is patent EP3964206A1, “COMPOUNDS FOR THE TREATMENT OF COVID-19” (priority 2020, dated 2022).

Each structure is given as a SMILES string. Where a name gives a salt, the structure may show the parent alone.

The subject of this test is SARS-CoV-2. The experiment in a line: microbe, parasite or virus in culture. The format is cell-based. The note with it: Severe acute respiratory syndrome coronavirus 2, 120 h; for Emax: read-out: Maximum confluence reached (%).

Consider `O=c1cc(N2CCOCC2)oc2c(-c3cccc4c3sc3ccccc34)cccc12` [Compound 69, 8-(Dibenzo[b,d]thien-4-yl)-2-(4-morpholinyl)-4H-1-benzopyran-4-one], for which the Emax came to 90.5%.
The same measure, in the same setting: the value for `Nc1ncnc2c1ncn2[C@@H]1CC[C@@H](O)[C@H]1O` [Compound 74, (1R,2S,3R)-9-(2,3-Dihydroxycyclopentyl)adenine] was 38%; that for `Cc1nc(N)nc(N)c1-c1ccc(Cl)c(Cl)c1` [Compound 41, 5-(3,4-Dichlorophenyl)-6-methylpyrimidine-2,4-diamine] was 58%.
As for `CCC(=C(c1ccc(O)cc1)c1ccc(OCCNC)cc1)c1ccccc1` [Compound 91, 4-[1-[4-[2-(Methylamino)ethoxy]phenyl]-2-phenyl-1-butenyl]phenol hydrochloride], half-maximal inhibition (IC50) required 6.34 µM and the Emax came to 35.7%.
As for `O=C(c1c2ccccc2cc2ccccc12)N1CCC(N2CCC[C@@H](C(=O)N3CCOCC3)C2)CC1` [Compound 81, 1-[1'-(Anthracen-9-ylcarbonyl)-1,4'-bipiperidin-3(R)-yl]-1-(4-morpholinyl)methanone], the Emax was 51%.
On to `CC1=NN(c2ccc(C)c(C)c2)C(=O)/C1=N\Nc1cccc(-c2cccc(C(=O)O)c2)c1O` [Compound 37, 3'-[2(Z)-[1-(3,4-Dimethylphenyl)-3-methyl-5-oxo-4,5-dihydro-1H-pyrazol-4-ylidene]hydrazino]-2'-hydroxybiphenyl-3-carboxylic acid], for which the IC50 was 58.1 µM and the Emax was determined as 63.2%.
For `CC(C)C(=O)OCC(=O)[C@@]12O[C@H](C3CCCCC3)O[C@@H]1C[C@H]1[C@@H]3CCC4=CC(=O)C=C[C@]4(C)[C@H]3[C@@H](O)C[C@@]12C` [Compound 96, 16alpha,17alpha-[(R)-Cyclohexylmethylenedioxy]-11beta-hydroxy-21-(isobutyryloxy)pregna-1,4-dien-3-one], in that order: 47 µM and 35.2%.
With `COc1cc(NCc2ccc3nc(N)nc(N)c3c2C)cc(OC)c1OC` [Compound 2, 2,4-Diamino-5-methyl-6-[(3,4,5-trimethoxyanilino)methyl]quinazoline], the Emax came out at 78.2%.
Take `Cc1ccc(NC(=O)c2ccc(CN3CCN(C)CC3)cc2)cc1Nc1nc(-c2cccnc2)cs1` [Compound 50, 4-[(4-methylpiperazin-1-yl)methyl]-N-[4-methyl-3-[(4-pyridin-3-yl-1,3-thiazol-2-yl)amino]phenyl]benzamide]: the Emax turned out to be 57.1%.
The same measure, in the same setting: the value for `COc1ccc2c(c1)[C@]1(C[C@H]1c1ccc3c(/C=C/c4ccc(CN5C[C@@H](C)O[C@@H](C)C5)cc4)n[nH]c3c1)C(=O)N2` [Compound 33, (1R,2S)-2-[3-[(E)-2-[4-[(cis-2,6-Dimethylmorpholin-4-yl)methyl]phenyl]vinyl]-1H-indazol-6-yl]-5'-methoxyspiro[cyclopropane-1,3'-indol]-2'(1'H)-one (2E)-but-2-enedioate] was 105%; that for `Cn1c(Nc2ccc(C(F)(F)F)cc2)nc2cc(Oc3ccnc(-c4nc(C(F)(F)F)c[nH]4)c3)ccc21` [Compound 70, 1-Methyl-N-[4-(trifluoromethyl)phenyl]-5-[2-[4-(trifluoromethyl)-1H-imidazol-2-yl]pyridin-4-yloxy]-1H-benzimidazol-2-amine] was 44.1%; that for `CC(C)COCC(CN(Cc1ccccc1)c1ccccc1)N1CCCC1` (centres unmarked) [Compound 78, 1-[1-(N-Benzylanilino)-3-isobutoxy-2-propyl]pyrrolidine monohydrochloride monohydrate] was 30.4%.
The same measure, in the same setting: the result for `O=C(Nc1ccc(Cl)c(Cl)c1)Nc1ccc(Cl)c(Cl)c1` [Compound 72, 1,3-Bis(3,4-dichlorophenyl)urea] reads 45.9%; that for `Nc1ncc(-c2ccnc(Nc3ccncc3)n2)c(CC2CC2)n1` [Compound 20, 4'-(Cyclopropylmethyl)-N2-(pyridin-4-yl)-4,5'-bipyrimidine-2,2'-diamine], 98.2%.
